This is an account of results in patent US10537563B2, “Methods for treating ocular disease using inhibitors of CSF-1R” (NOVARTIS AG, priority 2016, dated 2020).

The test system of one experiment is human monocytes. The experiment is described as follows: Human monocyte survival in culture. The class given is cell-based. Conditions: concentration dependent effect. The procedure:
(§1) Freshly isolated human PBMCs were used to purify human monocytes by negative selection using an indirect magnetic labeling system. […] Soluble factors such as cytokines (VEGFa, IL-6 etc.) and chemokines (IL-8, MCP-1, MMP9 etc.) in the culture supernatant were measured using commercial ELISA kits. The in vitro survival of human macrophages was measured using a commercially available CellTiter-Glo® system. Most observed results were repeated in multiple donors (n>5).

In a further experiment the target is T1, BaF3-Tel-JAK2; clone1 (Homo sapiens, UniProt O60674).
T1 construct: fused on or other part: P41212 (Transcription factor ETV6)
Kind of experiment: BaF3 proliferation assay. The class given is cell-based, murine.

Another experiment concerns CD206. Kind of experiment: CD206 expression in M2a macrophages. The class given is cell-based, human. The procedure:
as §1

Another experiment deals with T2, BAF/Tel-JAK2-1.2/sACP (Homo sapiens, UniProt O60674).
T2 construct: fused on or other part: P41212 (Transcription factor ETV6)
The experiment is described as follows: BaF3 proliferation assay. It is filed as cell-based, murine.

The subject of a further experiment is MCP-1. Kind of experiment: MCP-1 production by human monocytes (ELISA). The class given is cell-based. Conditions: Monocyte. The procedure:
as §1

The target in another experiment is PIK3Cbeta (Homo sapiens, UniProt P42338). Kind of experiment: In vitro kinase assay (Table 1). The class given is biochemical.
Another experiment deals with T3, BAF/Tel-FGFR4-Q4/sACP (Homo sapiens, UniProt P22455).
T3 construct: fused on or other part: P41212 (Transcription factor ETV6)
The experiment is described as follows: BaF3 proliferation assay. The class given is cell-based, murine.

A further experiment concerns the target Ck2alpha1 (Homo sapiens, UniProt P68400). The experiment is described as follows: In vitro kinase assay (Table 1). It is filed as biochemical.
For a further experiment, the target named is Chk1 (Homo sapiens, UniProt O14757). Kind of experiment: In vitro kinase assay (Table 1). The class given is biochemical.
A further experiment has as its target TSSK1 (Homo sapiens, UniProt Q9BXA7). The experiment is described as follows: In vitro kinase assay (Table 1). It is filed as biochemical.
The target of a further experiment is T4, BAF/Tel-Syk-1.1/sACP (Homo sapiens, UniProt P43405).
T4 construct: fused on or other part: P41212 (Transcription factor ETV6)
Kind of experiment: BaF3 proliferation assay. It is filed as cell-based, murine.

The next experiment addresses p38alpha (Homo sapiens, UniProt Q16539). The experiment is described as follows: In vitro kinase assay (Table 1). It is filed as biochemical.
The subject of the next experiment is IL-8. The experiment is described as follows: IL-8 production by human monocytes (ELISA). The class given is cell-based. Conditions: Monocyte. The procedure:
as §1

The target in another experiment is Jak2 (Homo sapiens, UniProt O60674). Kind of experiment: In vitro kinase assay (Table 1). The class given is biochemical.
The test system of experiment [1] is cytokine-polarized human macrophages (M1 or M2). The experiment is described as follows: Survival of fully differentiated, cytokine-polarized human macrophages. It is filed as cell-based. As to the method: as §1
The target of another experiment is COT (Homo sapiens, UniProt P41279). Kind of experiment: In vitro kinase assay (Table 1). It is filed as biochemical.
The target of another experiment is T5, BAF/Tel-EphA3-4.2/sACP (Homo sapiens, UniProt P29320).
T5 construct: fused on or other part: P41212 (Transcription factor ETV6)
Kind of experiment: BaF3 proliferation assay. It is filed as cell-based, murine.

For experiment [2], the system named is all other BaF3 cell lines. Kind of experiment: BaF3 proliferation assays, all other cell lines. The class given is cell-based, murine. The following applies: Mus musculus, read-out: Cellular EC50, all other BaF3 cell lines.

SMILES strings stand for the structures. Bounds are passed on as bounds.

One may read the EC50 as the concentration giving half of the maximal effect. Broadly, the inhibition is the relative decrease from the control value, in per cent. A lower inhibition goes with a weak effect. The IC50 is the concentration at which inhibition is half-maximal. A higher IC50 goes with lower potency.

Ck2alpha1, sequence (P68400 whole entry): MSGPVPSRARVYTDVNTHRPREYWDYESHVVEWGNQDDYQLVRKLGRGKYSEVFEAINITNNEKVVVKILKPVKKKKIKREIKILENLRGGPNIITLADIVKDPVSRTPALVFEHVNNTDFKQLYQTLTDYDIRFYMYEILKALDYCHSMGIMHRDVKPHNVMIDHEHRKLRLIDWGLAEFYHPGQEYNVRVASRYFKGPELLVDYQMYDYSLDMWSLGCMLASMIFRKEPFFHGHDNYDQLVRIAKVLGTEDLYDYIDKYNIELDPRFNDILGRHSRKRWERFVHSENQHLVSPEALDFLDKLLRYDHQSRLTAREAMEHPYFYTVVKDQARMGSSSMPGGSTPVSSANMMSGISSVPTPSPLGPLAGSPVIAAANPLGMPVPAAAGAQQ
T2 sequence (O60674 849-1124 limits assumed, change not shown): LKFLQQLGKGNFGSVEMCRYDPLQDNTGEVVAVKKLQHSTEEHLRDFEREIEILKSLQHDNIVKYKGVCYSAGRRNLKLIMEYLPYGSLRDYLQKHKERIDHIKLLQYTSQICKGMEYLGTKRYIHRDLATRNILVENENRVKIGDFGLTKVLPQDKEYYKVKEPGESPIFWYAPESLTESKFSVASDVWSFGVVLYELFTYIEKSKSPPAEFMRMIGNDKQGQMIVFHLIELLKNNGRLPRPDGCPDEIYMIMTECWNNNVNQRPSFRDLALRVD
T5 sequence (P29320 621-882 limits assumed, change not shown): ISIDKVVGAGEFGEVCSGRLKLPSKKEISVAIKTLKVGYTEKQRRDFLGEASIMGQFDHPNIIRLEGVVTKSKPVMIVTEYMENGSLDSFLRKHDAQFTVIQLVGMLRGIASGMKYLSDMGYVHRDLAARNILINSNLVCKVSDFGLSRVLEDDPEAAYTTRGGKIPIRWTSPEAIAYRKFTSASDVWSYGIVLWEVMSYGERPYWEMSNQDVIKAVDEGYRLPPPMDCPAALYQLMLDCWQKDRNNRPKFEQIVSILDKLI
Jak2, sequence (O60674 whole entry, species assumed): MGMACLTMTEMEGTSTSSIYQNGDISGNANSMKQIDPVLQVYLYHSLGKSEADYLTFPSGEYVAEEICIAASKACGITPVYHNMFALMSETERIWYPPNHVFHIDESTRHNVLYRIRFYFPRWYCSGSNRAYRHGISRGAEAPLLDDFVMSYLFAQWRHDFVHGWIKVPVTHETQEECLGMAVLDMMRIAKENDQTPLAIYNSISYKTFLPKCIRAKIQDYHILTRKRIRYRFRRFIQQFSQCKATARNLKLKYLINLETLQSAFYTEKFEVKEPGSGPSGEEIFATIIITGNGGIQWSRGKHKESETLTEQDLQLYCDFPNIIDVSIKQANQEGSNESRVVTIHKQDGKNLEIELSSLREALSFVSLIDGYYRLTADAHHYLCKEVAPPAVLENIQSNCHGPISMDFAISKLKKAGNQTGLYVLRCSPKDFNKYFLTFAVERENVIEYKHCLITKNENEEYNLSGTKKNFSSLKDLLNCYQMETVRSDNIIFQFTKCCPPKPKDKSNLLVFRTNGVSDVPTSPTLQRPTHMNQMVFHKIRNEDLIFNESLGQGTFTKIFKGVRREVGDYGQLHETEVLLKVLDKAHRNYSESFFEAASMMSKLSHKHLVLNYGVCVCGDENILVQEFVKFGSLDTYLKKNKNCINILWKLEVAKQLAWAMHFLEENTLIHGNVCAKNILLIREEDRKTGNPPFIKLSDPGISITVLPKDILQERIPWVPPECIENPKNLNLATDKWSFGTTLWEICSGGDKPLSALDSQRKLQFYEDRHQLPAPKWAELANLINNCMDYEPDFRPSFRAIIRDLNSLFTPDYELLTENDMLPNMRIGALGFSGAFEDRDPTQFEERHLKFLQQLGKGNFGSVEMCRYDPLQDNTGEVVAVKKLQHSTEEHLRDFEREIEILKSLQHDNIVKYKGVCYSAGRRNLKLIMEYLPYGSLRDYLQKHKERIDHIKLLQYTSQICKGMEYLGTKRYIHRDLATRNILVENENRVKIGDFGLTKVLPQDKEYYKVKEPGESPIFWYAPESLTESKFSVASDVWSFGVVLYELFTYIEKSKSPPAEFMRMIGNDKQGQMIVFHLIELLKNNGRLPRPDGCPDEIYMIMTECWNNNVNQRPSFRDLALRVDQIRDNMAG
TSSK1, sequence (Q9BXA7 whole entry, species assumed): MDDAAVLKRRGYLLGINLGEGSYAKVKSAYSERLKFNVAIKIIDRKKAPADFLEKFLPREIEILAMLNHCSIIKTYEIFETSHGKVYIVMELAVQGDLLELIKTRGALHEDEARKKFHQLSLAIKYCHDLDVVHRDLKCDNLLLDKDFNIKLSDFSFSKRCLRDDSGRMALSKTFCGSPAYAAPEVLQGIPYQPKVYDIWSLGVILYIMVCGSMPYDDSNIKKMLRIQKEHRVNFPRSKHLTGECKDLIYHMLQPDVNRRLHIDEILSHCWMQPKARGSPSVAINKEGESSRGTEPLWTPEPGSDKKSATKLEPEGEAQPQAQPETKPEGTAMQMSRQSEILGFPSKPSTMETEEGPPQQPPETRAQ
T3 sequence (P22455 467-755 limits assumed, change not shown): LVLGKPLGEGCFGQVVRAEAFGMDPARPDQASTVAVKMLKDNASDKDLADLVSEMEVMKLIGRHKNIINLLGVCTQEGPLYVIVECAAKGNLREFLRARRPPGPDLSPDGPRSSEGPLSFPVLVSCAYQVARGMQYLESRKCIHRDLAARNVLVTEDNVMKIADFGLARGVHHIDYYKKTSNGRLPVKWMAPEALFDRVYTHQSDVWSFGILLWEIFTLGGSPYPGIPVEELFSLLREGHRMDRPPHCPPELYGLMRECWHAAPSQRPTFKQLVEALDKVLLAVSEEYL
PIK3Cbeta, sequence (P42338 whole entry): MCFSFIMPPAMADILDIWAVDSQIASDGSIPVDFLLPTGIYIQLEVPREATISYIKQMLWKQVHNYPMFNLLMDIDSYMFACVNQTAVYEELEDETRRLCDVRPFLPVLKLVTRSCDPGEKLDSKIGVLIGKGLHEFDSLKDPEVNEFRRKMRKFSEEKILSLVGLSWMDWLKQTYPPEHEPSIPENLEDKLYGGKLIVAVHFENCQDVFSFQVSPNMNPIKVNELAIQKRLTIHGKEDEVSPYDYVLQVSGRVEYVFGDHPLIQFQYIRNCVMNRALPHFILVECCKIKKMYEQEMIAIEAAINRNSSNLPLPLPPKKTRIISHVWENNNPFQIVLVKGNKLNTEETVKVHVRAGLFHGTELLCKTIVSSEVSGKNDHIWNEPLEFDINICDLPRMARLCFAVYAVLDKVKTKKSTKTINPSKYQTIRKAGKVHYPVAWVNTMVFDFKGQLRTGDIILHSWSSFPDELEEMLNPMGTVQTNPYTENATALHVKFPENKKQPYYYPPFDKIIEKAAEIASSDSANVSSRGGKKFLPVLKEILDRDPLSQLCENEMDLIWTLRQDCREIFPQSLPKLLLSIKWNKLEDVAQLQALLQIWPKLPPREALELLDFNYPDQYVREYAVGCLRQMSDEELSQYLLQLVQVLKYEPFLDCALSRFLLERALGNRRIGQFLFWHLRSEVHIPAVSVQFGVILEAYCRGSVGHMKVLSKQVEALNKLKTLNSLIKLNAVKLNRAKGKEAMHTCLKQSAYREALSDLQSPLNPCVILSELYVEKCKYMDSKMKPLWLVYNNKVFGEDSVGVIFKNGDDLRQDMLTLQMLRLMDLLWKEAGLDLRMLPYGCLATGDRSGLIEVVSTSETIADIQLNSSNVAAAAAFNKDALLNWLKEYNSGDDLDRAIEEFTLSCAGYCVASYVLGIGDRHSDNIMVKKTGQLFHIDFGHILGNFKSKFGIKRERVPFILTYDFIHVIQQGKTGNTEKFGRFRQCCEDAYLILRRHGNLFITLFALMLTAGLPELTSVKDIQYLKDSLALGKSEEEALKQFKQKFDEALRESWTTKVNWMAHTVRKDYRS
PIK3Cbeta, sequence (P27986 whole entry partner): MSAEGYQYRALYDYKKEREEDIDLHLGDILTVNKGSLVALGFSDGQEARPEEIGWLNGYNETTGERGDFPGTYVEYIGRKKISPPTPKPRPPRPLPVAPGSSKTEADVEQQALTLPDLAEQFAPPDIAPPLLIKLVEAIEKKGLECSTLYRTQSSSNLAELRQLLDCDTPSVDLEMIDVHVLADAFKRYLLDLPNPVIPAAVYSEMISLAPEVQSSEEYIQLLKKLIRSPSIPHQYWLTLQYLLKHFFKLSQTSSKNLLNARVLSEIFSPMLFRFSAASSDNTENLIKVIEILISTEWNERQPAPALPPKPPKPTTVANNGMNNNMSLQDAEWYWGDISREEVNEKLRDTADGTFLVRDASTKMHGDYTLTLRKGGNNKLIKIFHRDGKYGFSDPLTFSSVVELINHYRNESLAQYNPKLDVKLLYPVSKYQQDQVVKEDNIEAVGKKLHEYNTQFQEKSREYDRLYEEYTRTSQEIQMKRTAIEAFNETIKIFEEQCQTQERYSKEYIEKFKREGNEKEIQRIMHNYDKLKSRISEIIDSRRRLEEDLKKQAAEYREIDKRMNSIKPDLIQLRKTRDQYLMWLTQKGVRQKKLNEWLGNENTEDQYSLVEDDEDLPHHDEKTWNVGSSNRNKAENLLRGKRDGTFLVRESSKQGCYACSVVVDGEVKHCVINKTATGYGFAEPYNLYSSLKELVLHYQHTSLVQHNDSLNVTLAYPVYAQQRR
T1 sequence (O60674 849-1132 limits assumed, change not shown): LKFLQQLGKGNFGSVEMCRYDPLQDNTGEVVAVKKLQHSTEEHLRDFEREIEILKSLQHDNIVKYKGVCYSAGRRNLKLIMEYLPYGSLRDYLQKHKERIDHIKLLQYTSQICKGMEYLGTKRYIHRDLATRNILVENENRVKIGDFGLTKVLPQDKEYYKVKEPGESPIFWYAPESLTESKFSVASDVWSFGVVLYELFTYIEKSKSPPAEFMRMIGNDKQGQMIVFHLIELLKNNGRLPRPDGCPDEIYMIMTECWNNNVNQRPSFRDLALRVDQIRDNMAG

Take `CNC(=O)c1cc(Oc2ccc3nc(NC4CCCCC4O)sc3c2)ccn1` (stereo not drawn) [Compound (I)]: the “concentration at which monocyte survival was significantly affected” value in the experiment with human monocytes is no less than 0.6 µM. The EC50 (at BaF3-Tel-JAK2; clone1; on BAF/Tel-JAK2-1.2/sACP; at BAF/Tel-FGFR4-Q4/sACP; at BAF/Tel-Syk-1.1/sACP; on BAF/Tel-EphA3-4.2/sACP; in experiment [2]) was greater than 10 µM in each case. Also, the “CD206 expression in M2a” value with CD206 is “dose-dependently decreased”. The inhibition at 0.05 µM in the experiment with MCP-1 lay in the range of 30 to 70%; with IL-8, 7 to 90%. In addition, the IC50 on PIK3Cbeta is greater than 25 µM; against Ck2alpha1, greater than 10 µM; against Chk1 it was greater than 10 µM; against TSSK1, greater than 10 µM; on p38alpha, greater than 25 µM; against Jak2 it was greater than 25 µM. Also, on COT, the IC50 is greater than 25 µM. Also, the “survival of fully differentiated, cytokine-polarized human macrophages (M1 or M2)” value in experiment [1] is recorded as “did not affect”.
